From patent US11008554B2 (priority 2014, dated 2021)

Molecular target: recombinant human AChE (Homo sapiens, UniProt P22303, D92N/S572N)
Format: biochemical

Sequence of recombinant human AChE (P22303 whole entry D92N/S572N, looked up): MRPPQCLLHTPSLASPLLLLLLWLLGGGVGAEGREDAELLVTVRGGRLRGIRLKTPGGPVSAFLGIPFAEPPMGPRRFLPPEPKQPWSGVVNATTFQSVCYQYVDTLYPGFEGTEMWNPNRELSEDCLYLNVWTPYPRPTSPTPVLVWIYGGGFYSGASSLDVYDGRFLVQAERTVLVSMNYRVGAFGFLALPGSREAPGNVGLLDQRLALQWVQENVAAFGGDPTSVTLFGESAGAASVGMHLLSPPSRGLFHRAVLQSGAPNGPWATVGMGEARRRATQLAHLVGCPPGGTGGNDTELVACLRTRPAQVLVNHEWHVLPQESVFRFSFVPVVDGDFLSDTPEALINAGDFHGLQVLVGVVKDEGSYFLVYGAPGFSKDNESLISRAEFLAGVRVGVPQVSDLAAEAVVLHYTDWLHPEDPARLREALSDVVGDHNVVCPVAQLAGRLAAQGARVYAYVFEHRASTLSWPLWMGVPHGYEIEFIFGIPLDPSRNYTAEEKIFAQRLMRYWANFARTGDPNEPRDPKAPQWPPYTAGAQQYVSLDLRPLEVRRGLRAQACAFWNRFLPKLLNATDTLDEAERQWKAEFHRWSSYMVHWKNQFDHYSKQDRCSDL

CCOP(=O)(OCC)Oc1ccc([N+](=O)[O-])cc1 [paraoxon]
inhibition of AChE enzyme (localized red spot): inhibited
